IC50 data for 3 compounds are collected here from ChEMBL document CHEMBL1944522, “Design, synthesis, and anaplastic lymphoma kinase (ALK) inhibitory activity for a novel series of 2,4,8,22-tetraazatetracyclo[14.3.1.1³,⁷.1⁹,¹³]docosa-1(20),3(22),4,6,9(21),10,12,16,18-nonaene macrocycles” (J Med Chem, 2012).

This assay deals with ALK tyrosine kinase receptor (Homo sapiens, UniProt Q9UM73). Nature of the assay: Inhibition of baculovirus expressed GST-tagged human ALK cytoplasmic domain using PLCgamma as substrate after 15 mins by time-resolved fluorescence analysis.

Structures are written as SMILES. pIC50: −log10 of the molar value.

ALK tyrosine kinase receptor, sequence (Q9UM73 whole entry, the tested form may be a part): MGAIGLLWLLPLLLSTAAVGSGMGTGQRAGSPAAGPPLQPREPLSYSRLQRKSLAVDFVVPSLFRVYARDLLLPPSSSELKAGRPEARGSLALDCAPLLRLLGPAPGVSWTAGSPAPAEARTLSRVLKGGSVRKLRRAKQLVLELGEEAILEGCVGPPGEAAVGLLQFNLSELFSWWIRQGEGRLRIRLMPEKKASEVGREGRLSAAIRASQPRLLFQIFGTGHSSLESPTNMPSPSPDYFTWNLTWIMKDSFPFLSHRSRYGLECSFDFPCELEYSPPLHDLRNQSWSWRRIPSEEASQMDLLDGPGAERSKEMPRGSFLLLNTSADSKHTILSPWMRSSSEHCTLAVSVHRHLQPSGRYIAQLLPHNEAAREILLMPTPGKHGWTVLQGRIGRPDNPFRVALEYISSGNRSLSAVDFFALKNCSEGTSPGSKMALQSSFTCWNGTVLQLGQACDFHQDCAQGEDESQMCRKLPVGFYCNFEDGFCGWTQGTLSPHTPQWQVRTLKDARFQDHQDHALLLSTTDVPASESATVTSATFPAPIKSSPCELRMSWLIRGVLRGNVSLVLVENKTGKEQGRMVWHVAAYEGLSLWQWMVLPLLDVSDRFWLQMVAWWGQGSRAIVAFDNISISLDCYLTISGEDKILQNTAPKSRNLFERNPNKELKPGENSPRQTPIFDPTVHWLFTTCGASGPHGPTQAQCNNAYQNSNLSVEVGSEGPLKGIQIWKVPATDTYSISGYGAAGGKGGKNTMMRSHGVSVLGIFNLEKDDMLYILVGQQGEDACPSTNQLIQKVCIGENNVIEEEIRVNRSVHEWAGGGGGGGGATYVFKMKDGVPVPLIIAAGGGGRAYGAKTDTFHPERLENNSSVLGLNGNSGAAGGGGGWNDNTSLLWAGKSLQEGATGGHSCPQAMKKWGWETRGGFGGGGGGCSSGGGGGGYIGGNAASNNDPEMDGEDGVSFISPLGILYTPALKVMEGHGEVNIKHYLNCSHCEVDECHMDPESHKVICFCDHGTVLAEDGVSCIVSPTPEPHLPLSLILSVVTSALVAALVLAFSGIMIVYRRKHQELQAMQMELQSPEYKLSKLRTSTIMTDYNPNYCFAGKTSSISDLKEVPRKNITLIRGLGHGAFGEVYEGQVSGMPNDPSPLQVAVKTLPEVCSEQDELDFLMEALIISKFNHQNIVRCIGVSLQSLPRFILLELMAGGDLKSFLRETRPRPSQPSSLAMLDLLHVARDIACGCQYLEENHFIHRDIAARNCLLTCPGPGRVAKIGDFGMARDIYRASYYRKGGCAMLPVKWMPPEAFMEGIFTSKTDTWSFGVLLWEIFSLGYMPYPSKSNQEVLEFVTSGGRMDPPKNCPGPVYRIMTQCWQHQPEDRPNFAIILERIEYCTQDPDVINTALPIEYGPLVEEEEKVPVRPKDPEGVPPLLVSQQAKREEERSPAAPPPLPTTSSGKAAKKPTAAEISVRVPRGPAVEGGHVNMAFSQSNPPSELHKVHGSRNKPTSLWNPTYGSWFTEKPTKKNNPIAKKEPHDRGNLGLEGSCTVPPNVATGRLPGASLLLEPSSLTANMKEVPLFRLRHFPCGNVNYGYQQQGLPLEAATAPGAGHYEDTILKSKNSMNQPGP

As to `Clc1cnc2nc1Nc1cccc(c1)CCc1cccc(c1)N2`, the negative-log IC50 (pIC50) (usually −log10 of the IC50, conventionally taken in molar units) is less than 5.00. As for `Clc1cnc2nc1Nc1cccc(c1)CCc1cc(ccc1N1CCOCC1)N2`, the figure is less than 5.00. For the compound `COc1ccc2cc1Nc1nc(ncc1Cl)Nc1ccc(N3CCOCC3)c(c1)CC2`, the pIC50 is less than 6.00.
